Assay results reported in PubChem BioAssay AID1963443 (Molecular Pharmacology Branch, DTP, NCI, 2024).

Test system: MDA-MB-231 complex spheroids, growth inhibition
Assay: Anticancer human tumor MDA-MB-231 cell line growth inhibition [Asc];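 further: spheroids exposed to compounds for 7 days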
Settings: for IC50: curve of first compound; for viability, T/C: stronger effect = lower value
Outline: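 Complex spheroids combining tumor cells with HUVEC endothelial cells and human MSCs, at 37 degrees C, 5% CO2; agents tested alone or combined, half-log dilutions from at or near clinical Cmax, or 10 microM if Cmax unknown.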

[1] = second compound 0.1 µM, first compound 0.0316 µM
[2] = second compound 0.1 µM, first compound 0.1 µM
[3] = second compound 0.1 µM, first compound 0.316 µM
[4] = second compound 0.1 µM, first compound 1 µM
[5] = second compound 0.316 µM, first compound 0.0316 µM
[6] = second compound 0.316 µM, first compound 0.1 µM
[7] = second compound 0.316 µM, first compound 0.316 µM
[8] = second compound 0.316 µM, first compound 1 µM
[9] = second compound 1 µM, first compound 0.0316 µM
[10] = second compound 1 µM, first compound 0.1 µM
[11] = second compound 1 µM, first compound 0.316 µM
[12] = second compound 1 µM, first compound 1 µM

Cc1nc(N2CCC3(CC2)COC(C)C3N)c(CO)nc1Sc1ccnc(N)c1Cl (stereo not given) + CCN1C(C(=O)NC23CCC(C(=O)O)(CC2)CC3)C(c2cccc(Cl)c2F)C2(C(=O)Nc3cc(Cl)ccc32)C12CCCCC2
IC50 (second compound 0.03 µM): 319 nM | IC50 (second compound 0.0949 µM): 337 nM | IC50 (second compound 0.3 µM): 281 nM | IC50 (second compound 0.949 µM): 270 nM | IC50 (second compound 3 µM): 157 nM | viability, T/C (second compound 0.03 µM, first compound 0.00949 µM): 95.8% | viability, T/C (second compound 0.03 µM, first compound 0.03 µM): 95.4% | viability, T/C (second compound 0.03 µM, first compound 0.0949 µM): 96.7% | viability, T/C (second compound 0.03 µM, first compound 0.3 µM): 52.7% | viability, T/C (second compound 0.03 µM, first compound 0.949 µM): 2.27% | viability, T/C (second compound 0.03 µM, first compound 3 µM): 0.7% | viability, T/C (second compound 0.0949 µM, first compound 0.00949 µM): 95.7% | viability, T/C (second compound 0.0949 µM, first compound 0.03 µM): 95.7% | viability, T/C (second compound 0.0949 µM, first compound 0.0949 µM): 87.2% | viability, T/C (second compound 0.0949 µM, first compound 0.3 µM): 56% | viability, T/C (second compound 0.0949 µM, first compound 0.949 µM): 2.11% | viability, T/C (second compound 0.0949 µM, first compound 3 µM): 0.82% | viability, T/C (second compound 0.3 µM, first compound 0.00949 µM): 99.6% | viability, T/C (second compound 0.3 µM, first compound 0.03 µM): 99% | viability, T/C (second compound 0.3 µM, first compound 0.0949 µM): 98.3% | viability, T/C (second compound 0.3 µM, first compound 0.3 µM): 47.1% | viability, T/C (second compound 0.3 µM, first compound 0.949 µM): 2.58% | viability, T/C (second compound 0.3 µM, first compound 3 µM): 0.88% | viability, T/C (second compound 0.949 µM, first compound 0.00949 µM): 109% | viability, T/C (second compound 0.949 µM, first compound 0.03 µM): 108% | viability, T/C (second compound 0.949 µM, first compound 0.0949 µM): 107% | viability, T/C (second compound 0.949 µM, first compound 0.3 µM): 44.2% | viability, T/C (second compound 0.949 µM, first compound 0.949 µM): 2.18% | viability, T/C (second compound 0.949 µM, first compound 3 µM): 0.9% | viability, T/C (second compound 3 µM, first compound 0.00949 µM): 91.1% | viability, T/C (second compound 3 µM, first compound 0.03 µM): 89.2% | viability, T/C (second compound 3 µM, first compound 0.0949 µM): 81.8% | viability, T/C (second compound 3 µM, first compound 0.3 µM): 9.35% | viability, T/C (second compound 3 µM, first compound 0.949 µM): 1.26% | viability, T/C (second compound 3 µM, first compound 3 µM): 0.54%

O=C(c1cc(Cc2n[nH]c(=O)c3ccccc23)ccc1F)N1CCN(C(=O)C2CC2)CC1 + Cc1c(S(C)(=O)=O)c(-c2cc(F)cc(N3CCN(c4ccc(NS(=O)(=O)c5ccc(NC(CCN6CCC(C(=O)OCCCP(=O)(O)O)CC6)CSc6ccccc6)c(S(=O)(=O)C(F)(F)F)c5)cc4)CC3)c2)c(-c2ccc(Cl)cc2)n1C(C)C
IC50 (second compound 0.1 µM): > 10000 nM | IC50 (second compound 0.316 µM): > 10000 nM | IC50 (second compound 1 µM): > 10000 nM | IC50 (second compound 3.16 µM): 7460 nM | IC50 (second compound 10 µM): 6790 nM | viability, T/C [1]: 96.8% | viability, T/C [2]: 98.9% | viability, T/C [3]: 94.9% | viability, T/C [4]: 85.7% | viability, T/C (second compound 0.1 µM, first compound 3.16 µM): 78.3% | viability, T/C (second compound 0.1 µM, first compound 10 µM): 68.9% | viability, T/C [5]: 91.7% | viability, T/C [6]: 96.2% | viability, T/C [7]: 100% | viability, T/C [8]: 87.2% | viability, T/C (second compound 0.316 µM, first compound 3.16 µM): 87% | viability, T/C (second compound 0.316 µM, first compound 10 µM): 65.6% | viability, T/C [9]: 97.7% | viability, T/C [10]: 95.3% | viability, T/C [11]: 88.8% | viability, T/C [12]: 85% | viability, T/C (second compound 1 µM, first compound 3.16 µM): 77.5% | viability, T/C (second compound 1 µM, first compound 10 µM): 54.5% | viability, T/C (second compound 3.16 µM, first compound 0.0316 µM): 86.8% | viability, T/C (second compound 3.16 µM, first compound 0.1 µM): 93.8% | viability, T/C (second compound 3.16 µM, first compound 0.316 µM): 89.3% | viability, T/C (second compound 3.16 µM, first compound 1 µM): 83.9% | viability, T/C (second compound 3.16 µM, first compound 3.16 µM): 72.2% | viability, T/C (second compound 3.16 µM, first compound 10 µM): 42.3% | viability, T/C (second compound 10 µM, first compound 0.0316 µM): 102% | viability, T/C (second compound 10 µM, first compound 0.1 µM): 101% | viability, T/C (second compound 10 µM, first compound 0.316 µM): 96.8% | viability, T/C (second compound 10 µM, first compound 1 µM): 91% | viability, T/C (second compound 10 µM, first compound 3.16 µM): 75.7% | viability, T/C (second compound 10 µM, first compound 10 µM): 36.9%

COc1c(OCCCN2CCOCC2)ccc2c3n(c(=NC(=O)c4cnc(N)nc4)nc12)CCN3 + CNC(C)C(=O)NC1CN(S(=O)(=O)c2cccc(S(=O)(=O)N3CCC4CCC(C(=O)NC(c5ccccc5)c5ccccc5)N4C(=O)C(NC(=O)C(C)NC)C3)c2)CCC2CCC(C(=O)NC(c3ccccc3)c3ccccc3)N2C1=O
IC50 (second compound 0.01 µM): < 3.16 nM | IC50 (second compound 0.0316 µM): < 3.16 nM | IC50 (second compound 0.1 µM): < 3.16 nM | IC50 (second compound 0.316 µM): < 3.16 nM | IC50 (second compound 1 µM): < 3.16 nM | viability, T/C (second compound 0.01 µM, first compound 0.00316 µM): 3.3% | viability, T/C (second compound 0.01 µM, first compound 0.01 µM): 4.73% | viability, T/C (second compound 0.01 µM, first compound 0.0316 µM): 3.39% | viability, T/C (second compound 0.01 µM, first compound 0.1 µM): 3.64% | viability, T/C (second compound 0.01 µM, first compound 0.316 µM): 2.42% | viability, T/C (second compound 0.01 µM, first compound 1 µM): 3.12% | viability, T/C (second compound 0.0316 µM, first compound 0.00316 µM): 2.47% | viability, T/C (second compound 0.0316 µM, first compound 0.01 µM): 3.12% | viability, T/C (second compound 0.0316 µM, first compound 0.0316 µM): 1.48% | viability, T/C (second compound 0.0316 µM, first compound 0.1 µM): 1.69% | viability, T/C (second compound 0.0316 µM, first compound 0.316 µM): 1.21% | viability, T/C (second compound 0.0316 µM, first compound 1 µM): 1.12% | viability, T/C (second compound 0.1 µM, first compound 0.00316 µM): 2.16% | viability, T/C (second compound 0.1 µM, first compound 0.01 µM): 2.68% | viability, T/C [1]: 2.19% | viability, T/C [2]: 1.47% | viability, T/C [3]: 1.18% | viability, T/C [4]: 0.78% | viability, T/C (second compound 0.316 µM, first compound 0.00316 µM): 1.32% | viability, T/C (second compound 0.316 µM, first compound 0.01 µM): 1.65% | viability, T/C [5]: 1.85% | viability, T/C [6]: 1.41% | viability, T/C [7]: 0.21% | viability, T/C [8]: 0.62% | viability, T/C (second compound 1 µM, first compound 0.00316 µM): 1.05% | viability, T/C (second compound 1 µM, first compound 0.01 µM): 1.1% | viability, T/C [9]: 0.84% | viability, T/C [10]: 0.98% | viability, T/C [11]: 0.77% | viability, T/C [12]: 0.29%
